We go through 1 substance from patent US20140017336A1, “CO-ADMINISTRATION OF ARSENIC COMPOUNDS AND ANTI-HERPES VIRUS ANTI-VIRALS” (priority 2011, published 2014).

In series [1] the target is T1, PML NB (Homo sapiens, UniProt P29590).
T1 construct: CNE1 cells were infected with the BX-1 strain of EBV and PML-NBs were imaged by fluorescent microscopy; endogenous in cells; host or cells: CNE1<EBV-BX1> (EBV-infected CNE1) and uninfected parental CNE1
T1 sequence (P29590 1-882): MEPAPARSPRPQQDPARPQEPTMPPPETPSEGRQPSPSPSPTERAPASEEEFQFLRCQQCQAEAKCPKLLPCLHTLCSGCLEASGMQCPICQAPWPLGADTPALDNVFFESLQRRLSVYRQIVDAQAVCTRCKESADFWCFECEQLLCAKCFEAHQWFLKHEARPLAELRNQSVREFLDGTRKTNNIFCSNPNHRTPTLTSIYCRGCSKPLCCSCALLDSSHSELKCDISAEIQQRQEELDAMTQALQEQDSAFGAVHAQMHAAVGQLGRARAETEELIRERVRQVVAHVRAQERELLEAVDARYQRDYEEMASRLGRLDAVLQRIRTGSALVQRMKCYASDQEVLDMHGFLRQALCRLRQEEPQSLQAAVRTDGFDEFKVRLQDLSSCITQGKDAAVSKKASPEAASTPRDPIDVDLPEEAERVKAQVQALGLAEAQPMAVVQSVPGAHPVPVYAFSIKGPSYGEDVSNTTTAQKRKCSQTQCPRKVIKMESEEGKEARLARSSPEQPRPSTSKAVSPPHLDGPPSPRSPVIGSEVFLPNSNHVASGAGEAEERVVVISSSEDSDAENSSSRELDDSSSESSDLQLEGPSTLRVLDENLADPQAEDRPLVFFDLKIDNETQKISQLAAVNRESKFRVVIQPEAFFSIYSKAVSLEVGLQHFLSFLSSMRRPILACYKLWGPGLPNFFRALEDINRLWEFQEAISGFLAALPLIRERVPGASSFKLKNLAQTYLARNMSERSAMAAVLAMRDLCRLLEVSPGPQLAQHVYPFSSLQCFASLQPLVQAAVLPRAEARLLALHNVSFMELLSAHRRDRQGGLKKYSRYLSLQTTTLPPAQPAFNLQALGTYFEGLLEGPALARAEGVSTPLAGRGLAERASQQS
It counts as cell-based.

The next series relates to EBV Zta protein. In kind it is in vivo, male nude mice. The settings on record: tumors harvested at 21 days of treatment.
Series [2] relates to EBV Zta mRNA. It counts as cell-based, Epstein-Barr virus. The settings on record: 72 hours, qRT-PCR. A general note: Quantitative PCR measures a nucleic acid by following its amplification.
Series [3] deals with MUTU1 cells (EBV positive Burkitt's lymphoma-derived). The series can be described thus: Viable cell count (trypan blue exclusion), MUTU1 cells. In kind it is cell-based, human. The settings on record: 10 nM or 100 nM ATO, 2 and 3 days.
The conditions of series [4]: dosage of ATO approved for relapsed or refractory acute promyelocytic leukemia (Fox et al., 2008); cited from earlier work.
The test system of the next series is CNE1<EBV BX1> tumors. Put plainly: CNE1<EBV BX1> nasopharyngeal carcinoma xenograft, tumor volume. The settings on record: 21 days of once daily treatment; GCV 100 μg/g, ATO 100 ng/g; carrier control just under double. In kind it is in vivo, male nude mice.
Series [5] deals with PML NB. In kind it is cell-based, human. The settings on record: 24 hours.
The subject of series [6] is EBV Zta mRNA. Put plainly: qRT-PCR of Zta mRNA in CNE1<EBV-BX1> cells. In kind it is cell-based, Epstein-Barr virus.
For series [7], the system named is EBV immediate early protein Zta. Put plainly: Zta immunofluorescence in CNE1<EBV-BX1> cells. In kind it is cell-based, Epstein-Barr virus. The following applies: 1 nM ATO with or without 40 μM GCV, 3 days. As to the method:
A549 cells were plated on 8-chambered Lab-Tek slides at 3×10^4 cells per well; chemical treatment began 24 hours after plating. At specified time points, cells were rinsed twice with PBS and fixed in 4% paraformaldehyde (freshly diluted from 16%, Electron Microscopy Science, Hatfield, Pa.) for 10 min at room temperature. The cells were then rinsed twice with PBS and permeabilized with 0.5% Triton™ X100 (Sigma) in PBS for 15 min at room temperature. Primary antibodies were applied at specified concentrations overnight in a humidified chamber at 4° C. Following 3 rinses in PBS, secondary antibodies were diluted 1:500 and applied for 1 hour at room temperature. The chambers were removed and Vectashield® with DAPI (Vector Laboratories, Burlingame, Calif. #H1200) was applied with cover slip mount. […]
To more specifically investigate the effects of disruption of PML NB on ZTA expression, siRNA directed against the PML transcript or a control siRNA were transfected into CNE1<BX1> cells. At day 4 post transfection, PML and Zta expression were analyzed using immunofluorescence. […] EBV infected and uninfected parental CNE1 cells were transfected with siRNA against the PML transcript or control siRNA cultured in the presence or absence of 40 μM GCV for 7 days and cells were counted in order to investigate whether disruption of PML NBs using siRNA induced GCV susceptibility. […]

Entries after “also recorded” stand apart in the source; their conditions may differ.

In the case of arsenic trioxide [ATO], the “PML NB immunofluorescence signal” value on PML NB [1] (1.0 nM ATO) is given as “below that of baseline untreated uninfected cells”; in the series with PML NB [5] (12.5 nM ATO) it was “complete loss; also recorded: below that of baseline untreated uninfected cells”. The “ATO concentration sufficient to disrupt PML NBs” value on PML NB [1] (EBV positive CNE1 cells) worked out at 1 nM. Besides, the “PML NB immunofluorescence intensity, dose response” value at PML NB [1] (EBV positive CNE1 cells) and in the series with PML NB [5] (varying doses of ATO) was “diminished by exposure to ATO in a dose dependent manner” each time. In the series on EBV Zta protein, the “Zta expression in tumor explant tissue” value is “large pockets of reactivation”. In addition, in the series on EBV Zta mRNA [2], the “ATO concentration inducing an increase in Zta mRNA” value is reported as ≥ 12.5 nM. Also, the “cell viability, EBV positive MUTU cells” value in series [3] is “dose and time dependent suppression of cell viability”. Also, the “peak serum arsenic level” value in [4] is ~400 nM. The “tumor size increase over size at day 7 (pre-treatment)” value with CNE1<EBV BX1> tumors was “approximately 10%”. Besides, the “ATO concentration resulting in reduction of PML NB size, number and fluorescent intensity” value in the series with PML NB [5] (EBV infected A549 cells, 'as low as') was found to be 6.25 nM. For the same substance, the “ATO dose inducing upregulation of ZTA mRNA” value in the series on EBV Zta mRNA [6] (48 hours, 'as low as') is recorded as 1.25 nM. In the series on EBV Zta mRNA [6] (4 days, 1 nM ATO and/or 40 μM GCV), the “Zta mRNA expression compared to control” value is “increased”. The “number of Zta positive cells” value in series [7] is on record as “increased the number of cells that were Zta positive”.
